The supplement of paper PMC10307832

Tests used:
Assay in all cases: relative viability (nuclei count vs DMSO), 5 days (fraction); higher = more cells survive
[1] = compound: CS(=O)(=O)c1ccc(-c2cnc(N)c(C(=O)Nc3ccccc3)n2)cc1 [VE-821] + COc1cc2c(Oc3ccc(NC(=O)C4(C(=O)Nc5ccc(F)cc5)CC4)cc3F)ccnc2cc1OCCCN1CCOCC1 [Foretinib] (partner 0.25 µM)
Procedure, shortened: (§1)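 After 5 days of treatment, lung cancer cells in 1536-well plates were fixed and stained in a single step (final 0.05% Triton X-100, 1% formaldehyde, 1 ug/ml Hoechst) and their nuclei counted on 4× images. Treatment had been applied by pin tool the day after seeding as one drug alone or as a fixed anchor-drug dose with five library-drug doses (not always all listed) in √10 steps. Relative viability is the nuclei count of treated wells divided by that of vehicle wells, and values are medians of duplicate plates.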

[2] = compound: CS(=O)(=O)c1ccc(C(=O)Nc2ccc(Cl)c(-c3ccccn3)c2)c(Cl)c1 [Vismodegib] + CCNC(=O)c1noc(-c2cc(C(C)C)c(O)cc2O)c1-c1ccc(CN2CCOCC2)cc1 [Luminespib] (partner 0.01 µM)
Procedure, shortened: as §1

[3] = compound: CS(=O)(=O)c1ccc(C(=O)Nc2ccc(Cl)c(-c3ccccn3)c2)c(Cl)c1 [Vismodegib] + COc1cc2c(Oc3ccc(NC(=O)C4(C(=O)Nc5ccc(F)cc5)CC4)cc3F)ccnc2cc1OCCCN1CCOCC1 [Foretinib] (partner 0.25 µM)
Procedure, shortened: as §1

[4] = compound: N#CC[C@H](C1CCCC1)n1cc(-c2ncnc3[nH]ccc23)cn1 [Ruxolitinib] + NC(=O)Nc1cc(-c2cccc(F)c2)sc1C(=O)N[C@H]1CCCNC1 [AZD7762] (partner 0.2 µM)
Procedure, shortened: as §1

Cell Line	relative viability ([1]; first compound 0.08 µM)	relative viability ([1]; first compound 0.253 µM)	relative viability ([1]; first compound 0.8 µM)	relative viability ([1]; first compound 2.53 µM)	relative viability ([1]; first compound 8 µM)	relative viability ([2]; first compound 0.08 µM)	relative viability ([2]; first compound 0.253 µM)	relative viability ([2]; first compound 0.8 µM)	relative viability ([2]; first compound 2.53 µM)	relative viability ([2]; first compound 8 µM)	relative viability ([3]; first compound 0.08 µM)	relative viability ([3]; first compound 0.253 µM)	relative viability ([3]; first compound 0.8 µM)	relative viability ([3]; first compound 2.53 µM)	relative viability ([3]; first compound 8 µM)	relative viability ([4]; first compound 0.08 µM)	relative viability ([4]; first compound 0.253 µM)	relative viability ([4]; first compound 0.8 µM)	relative viability ([4]; first compound 2.53 µM)	relative viability ([4]; first compound 8 µM)
NCI-H520	0.853	0.727	0.454	1.45	0.762	0.24	0.225	0.198	0.207	0.212	0.839	0.678	0.697	0.709	0.682	–	–	–	–	–
NCI-H1355	1.04	0.942	0.768	1.01	0.729	0.634	0.714	0.687	0.794	0.688	0.92	0.988	0.904	0.997	0.987	0.729	0.735	0.878	0.604	0.668
NCI-H1563	0.937	0.903	0.769	0.876	0.83	0.468	0.48	0.529	0.545	0.571	0.895	1.02	0.922	0.936	1.02	–	–	–	–	–
NCI-H1651	0.72	0.838	0.662	0.885	1.02	0.816	0.819	0.86	0.866	0.791	0.818	0.604	0.782	0.739	0.781	0.512	0.449	0.533	0.545	0.689
HCC-44	–	–	–	–	–	1	0.966	1	0.979	1.05	–	–	–	–	–	0.947	1.05	1	0.994	1.05
NCI-H1437	1.3	1.25	1.16	1.34	1.24	0.956	1.13	1.1	1.09	1.07	1.23	1.22	1.25	1.21	1.26	1.18	1.11	1.19	1.04	0.925
201T	1.09	1.17	0.784	0.968	0.6	1.02	1	1.07	1.11	0.968	1.17	1.04	0.951	1.08	1.08	0.583	0.622	0.595	0.649	0.763
LCLC-103H	0.926	0.876	0.82	0.914	0.572	1.03	0.968	0.93	0.884	1.07	0.747	0.758	0.73	0.756	0.776	0.829	0.783	0.798	0.836	0.614
NCI-H1915	1.15	1.08	1.03	1.09	0.912	0.759	0.758	0.785	0.837	0.769	1.02	1.06	1.05	1.05	1.08	0.687	0.681	0.753	0.572	0.593
NCI-H2085	1.05	0.915	0.863	1.01	0.812	0.393	0.441	0.423	0.434	0.474	0.86	0.96	0.989	0.755	0.796	1.08	1.1	1.01	0.921	0.984
NCI-H2228	0.945	0.849	0.946	0.749	0.567	0.225	0.183	0.182	0.127	0.18	0.866	1.02	0.871	0.769	1.01	–	–	–	–	–
EKVX	0.801	0.673	0.574	0.874	0.582	0.749	0.797	0.929	0.864	0.896	0.744	0.702	1.05	0.724	0.737	–	0.77	0.848	0.799	0.698
COR-L23	1.09	0.974	0.915	1.27	0.917	0.672	0.779	0.586	0.675	0.75	0.957	0.929	0.891	0.973	1.06	–	–	–	–	–
SK-MES-1	0.99	0.989	0.655	1.02	0.89	0.775	0.765	0.849	0.853	0.922	0.865	0.91	0.961	0.889	0.918	–	–	–	–	–
A549	0.996	0.93	0.858	0.861	0.713	–	–	–	–	–	1.03	0.928	1.05	0.969	0.943	–	–	–	–	–
NCI-H650	1.04	1.05	1.08	1.04	1.07	0.843	0.791	0.638	0.802	0.865	0.792	0.999	0.988	1.03	0.951	0.951	1.06	1.01	0.993	0.707
NCI-H2087	1.12	0.982	1.22	1.33	1	0.171	0.192	0.172	0.203	0.209	1.09	1.1	0.985	1.13	0.938	1.19	–	1.39	1.21	0.956
EBC-1	0.0973	0.103	0.0999	0.104	0.102	–	–	–	–	–	0.102	0.102	0.0802	0.097	0.105	–	–	–	–	–
NCI-H1648	–	–	–	–	–	–	–	–	–	–	–	–	–	–	–	0.739	0.817	0.658	0.914	1.15
NCI-H1623	0.936	0.816	0.741	0.867	0.73	0.483	0.439	0.611	0.457	0.6	0.805	0.927	0.914	0.822	0.864	–	–	–	–	–
